Test results: patent US20050043314A1, “Substituted alkylaminopyridazinone derivatives, process for the preparation thereof and pharmaceutical composition containing the same” (priority 2001, published 2005)

Columns and labels:
male Wistar rats [1] = assay: Vogel lick-conflict (drinking conflict) test; assay type: in vivo, rat; conditions: intraperitoneally, 30 min prior to test; number of tolerated shocks
Description: Experiments were performed in a PC operated system (LIIKOSYS, Experimetria, Hungary) consisted of 8 test chambers (20 cm×20 cm×20 cm Plexiglas boxes) each of which was equipped with a water fountain system mounted at appropriate height on the wall of the chamber and metal grid floor for delivering electric shocks. 160-180 g male Wistar rats (N═8) were deprived of drinking water 48 h and fasted for 24 h prior to test. Test and reference compounds or vehicle were administered intraperitoneally, 30 min prior to test. All procedures were carried out in a quiet, air-conditioned room between 07:30 and 13:00 h at an ambient temperature of 23±2° C. At the beginning of the test the animals were placed in the test chamber where they had free access to drinking water for a 30 s grace period. After that, electric shocks (600 μA, 0.6 s) were applied through the drinking spout following every 20 licks during the 5 min test period (Vogel et al, 1971). Number of punished licks were recorded and stored by an IBM compatible computer. Means±SEM of numbers of tolerated shocks were calculated in each group, statistical analysis of data was performed by one way ANOVA followed by Duncan's test (STATISTICA). Diazepam [7-chloro-1,3-dihydro-1-methyl-5-phenyl-2H-1,4-benzodiazepine-2-one] was used as the reference substance.

mouse = assay: Inhibition of spontaneous motor activity (Dews instrument); assay type: in vivo; conditions: per os, 60 min before test, 30 min recording; sedative effect
Description: The effect on spontaneous motor activity was investigated according to Borsy and co-workers [Borsy, J. et al, Arch. Int. Pharmacodyn., 124, 180-190 (1960)] in a ten channel Dews instrument, with 1-1 animal in each channel. Animals were placed into the instrument 60 min after per os treatment with either vehicle or test compound, and interruptions of infrared beams were recorded for 30 min. […] Diazepam was used as the reference substance.

Male Sprague-Dawley rats = assay: Elevated plus-maze test in rats; assay type: in vivo, rat; conditions: 60 min after treatment, minimal effective dose regarding time spent in the open arms
From the text: Test have been performed as described by Pellow and co-workers [J.Neurosci. Methods, 14, 149 (1985)]. A wooden cross, 15 cm wide with 100 cm long arms was used for the experiments. The sides and ends of two opposite arms of the cross were equipped with 40 cm high walls, however, the arms were open to the […] central area (closed arms). The two other opposite arms were not encircled by walls (open arms).
Male Sprague-Dawley rats weighing 200-220 g were used for the experiments. The animals were placed in the central area of the equipment 60 min after treatment and the following four parameters have been observed for the 5 min test time: • time spent in the open arms, • time spent in the closed arms, • number of entries into the open arms, • number of entries into the closed arms.
The effect was expressed as percent increase in either the time (measured in sec) spent in the open arms or number of entries into the open arms. MEDs (minimal effective dose) were determined for each compound regarding the time spent in the open arms
Buspirone [8-{4-[4-(2-pyrimidinyl)-1-piperazinyl]butyl}-8-azaspiro[4,5]decane-7,9-dione] was used as the reference substance.

male Wistar rats [2] = assay: Effects on blood pressure in conscious, freely moving rats (radiotelemetry); assay type: in vivo, rat
From the text: A 7 day postoperative recovery period was allowed.
None of the compounds examined reduced blood pressure of the test animals.

Molecule: 5-{2-[4-(methoxytrifluoromethylphenyl)-piperazine-1-yl]-ethylamino}-2H-pyridazine-3-one trihydrochloride [Example 1]
- MED in mg/kg ip. (male Wistar rats [1]): 20.0 mg/kg

Molecule: CN1C(=O)CN=C(c2ccccc2)c2cc(Cl)ccc21 [Diazepam, 7-chloro-1,3-dihydro-1-methyl-5-phenyl-2H-1,4-benzodiazepine-2-one, reference compound]
- MED in mg/kg ip. (male Wistar rats [1]): 5.0 mg/kg
- ID50 in mg/kg po. (mouse): 7.0 mg/kg

Molecule: O=c1cc(NCCN2CCN(c3ccccc3F)CC2)cn[nH]1 [Example 2, 5-{2-[4-(2-fluorophenyl)piperazine-1-yl]ethyl-amino}-2H-pyridazine-3-one]
- MED in mg/kg ip. (male Wistar rats [1]): 20.0 mg/kg
- melting point: 103 to 105 °C
- ID50 in mg/kg po. (mouse): 21.0 mg/kg

Molecule: O=c1cc(NCCN2CCN(c3ccccc3)CC2)cn[nH]1 [Example 3, 5-{2-[4phenylpiperazine-1-yl]ethylamino}2H-pyridazine-3-one]
- MED in mg/kg po. (Male Sprague-Dawley rats): 0.1 mg/kg
- MED in mg/kg ip. (male Wistar rats [1]): 5.0 mg/kg
- melting point: 147 to 149 °C
- ID50 in mg/kg po. (mouse): 60.0 mg/kg

Molecule: O=c1cc(NCCN2CCN(c3ccccn3)CC2)cn[nH]1 [Example 4, 5-[2-(4-pyridin-2-ylpiperazine-;1-yl)ethylamino]-2H-pyridazine-3-one]
- MED in mg/kg ip. (male Wistar rats [1]): 10.0 mg/kg

Molecule: O=c1cc(NCCN2CCN(c3ncccn3)CC2)cn[nH]1 [Example 5, 5-[2-(4-pyrimidin-2-ylpiperazine-1-yl)ethylamino]-2H-pyridazine-3-one]
- MED in mg/kg ip. (male Wistar rats [1]): 20.0 mg/kg
- melting point: 199 to 201 °C
- ID50 in mg/kg po. (mouse): >100.0 mg/kg

Molecule: O=c1cc(NCCN2CCN(c3ccc(F)cc3)CC2)cn[nH]1 [Example 7, 5-{2-[4-(4-fluorophenyl)piperazine-1-yl]ethyl-amino]-2H-pyridazine-3-one]
- Results of statistical evaluation (male Wistar rats [2]; blood pressure compared to placebo, N.S. = Not significant statistically, two-way ANOVA with Scheffe's post hoc test): N.S.
- Mean blood pressure after treatment with test compound, Mean (male Wistar rats [2]; mean arterial blood pressure for 6 hours after oral treatment, conscious rats): 92.7 mmHg
- MED in mg/kg ip. (male Wistar rats [1]): 20.0 mg/kg
- melting point: 96 to 98 °C
